Key:
Experiment in all cases: relative viability (nuclei count vs DMSO), 5 days (fraction); higher = more cells survive
MK-8033 + Palbociclib = compound: Cn1cc(-c2cnc3ccc4ccc(CS(=O)(=O)NCc5ccccn5)cc4c(=O)c3c2)cn1 [MK-8033] + CC(=O)c1c(C)c2cnc(Nc3ccc(N4CCNCC4)cn3)nc2n(C2CCCC2)c1=O [Palbociclib] (partner 0.5 µM)
Outline: (§1)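 Lung cancer cell lines in 1536-well plates were dosed by pin tool the day after seeding, either with one drug alone or with a fixed anchor-drug dose plus five library-drug doses (not always all listed) in √10 steps. After 5 days, cells were fixed and their nuclei stained in one step (final 0.05% Triton X-100, 1% formaldehyde, 1 ug/ml Hoechst), then counted on 4× images. Relative viability is the nuclei count in treated wells divided by that in vehicle wells. Values are medians of duplicate plates.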

Irinotecan + Palbociclib = compound: CCc1c2c(nc3ccc(OC(=O)N4CCC(N5CCCCC5)CC4)cc13)-c1cc3c(c(=O)n1C2)COC(=O)[C@]3(O)CC [Irinotecan] + CC(=O)c1c(C)c2cnc(Nc3ccc(N4CCNCC4)cn3)nc2n(C2CCCC2)c1=O [Palbociclib] (partner 0.5 µM)
Outline: as §1

RU-SKI 43 + AZD7762 = compound: CC[C@@H](C)CNCC(=O)N1CCC2=C([C@@H]1COC3=CC=CC(=C3)C)C=CS2 [RU-SKI 43] + NC(=O)Nc1cc(-c2cccc(F)c2)sc1C(=O)N[C@H]1CCCNC1 [AZD7762] (partner 0.2 µM)
Outline: as §1

Irinotecan + Linsitinib = compound: CCc1c2c(nc3ccc(OC(=O)N4CCC(N5CCCCC5)CC4)cc13)-c1cc3c(c(=O)n1C2)COC(=O)[C@]3(O)CC [Irinotecan] + C[C@]1(O)C[C@@H](c2nc(-c3ccc4ccc(-c5ccccc5)nc4c3)c3c(N)nccn32)C1 [Linsitinib] (partner 1 µM)
Outline: as §1

| Cell Line | relative viability (MK-8033 + Palbociclib; first compound 0.02 µM) | relative viability (MK-8033 + Palbociclib; first compound 0.06325 µM) | relative viability (MK-8033 + Palbociclib; first compound 0.2 µM) | relative viability (MK-8033 + Palbociclib; first compound 0.6325 µM) | relative viability (MK-8033 + Palbociclib; first compound 2 µM) | relative viability (Irinotecan + Palbociclib; first compound 0.6325 µM) | relative viability (Irinotecan + Palbociclib; first compound 2 µM) | relative viability (Irinotecan + Palbociclib; first compound 6.325 µM) | relative viability (Irinotecan + Palbociclib; first compound 20 µM) | relative viability (RU-SKI 43 + AZD7762; first compound 0.1 µM) | relative viability (RU-SKI 43 + AZD7762; first compound 0.3162 µM) | relative viability (RU-SKI 43 + AZD7762; first compound 1 µM) | relative viability (RU-SKI 43 + AZD7762; first compound 3.162 µM) | relative viability (RU-SKI 43 + AZD7762; first compound 10 µM) | relative viability (Irinotecan + Linsitinib; first compound 2 µM) | relative viability (Irinotecan + Linsitinib; first compound 6.325 µM) | relative viability (Irinotecan + Linsitinib; first compound 20 µM) | relative viability (Irinotecan + Linsitinib; first compound 0.6325 µM) |
| --- | --- | --- | --- | --- | --- | --- | --- | --- | --- | --- | --- | --- | --- | --- | --- | --- | --- | --- |
| 201T | 0.329 | 0.37 | 0.356 | 0.369 | 0.367 | 0.403 | 0.343 | 0.265 | 0.22 | 0.628 | 0.603 | 0.602 | 0.531 | 0.567 | 0.85 | 0.445 | 0.397 | – |
| A549 | – | – | – | – | – | – | – | – | – | – | – | – | – | – | 0.636 | 0.211 | 0.0965 | 0.374 |
| A-427 | 0.481 | 0.552 | 0.494 | 0.508 | 0.492 | 0.499 | 0.487 | 0.292 | 0.132 | 0.726 | 0.761 | 0.765 | 0.851 | 0.674 | 0.231 | 0.221 | 0.198 | – |
| ABC-1 | 0.664 | 0.733 | 0.591 | 0.724 | 0.646 | – | 0.628 | 0.506 | 0.358 | 0.894 | 0.867 | 1.2 | 0.727 | 0.957 | 0.676 | 0.344 | 0.238 | – |
| BEN | 0.445 | 0.512 | 0.435 | 0.484 | 0.461 | 0.45 | 0.448 | 0.387 | 0.534 | 0.801 | 0.652 | 0.786 | 0.642 | 0.743 | 0.7 | 0.3 | 0.378 | 1.06 |
| CAL-12T | 0.44 | 0.436 | 0.324 | 0.579 | 0.323 | 0.316 | 0.344 | 0.251 | 0.197 | 0.644 | 0.735 | 0.698 | 0.714 | 0.648 | 0.77 | 0.366 | 0.264 | 0.589 |
| COR-L23 | 0.239 | 0.29 | 0.27 | 0.304 | 0.326 | 0.155 | 0.218 | 0.184 | 0.105 | – | – | – | – | – | 0.284 | 0.203 | 0.123 | 0.392 |
| COR-L 105 | 0.429 | 0.388 | 0.394 | 0.464 | 0.418 | 0.407 | 0.395 | 0.454 | 0.3 | – | – | – | – | – | 0.898 | 0.637 | 0.314 | 0.883 |
| Calu-6 | – | – | – | – | – | – | – | – | – | – | – | – | – | – | 0.523 | 0.2 | 0.132 | 0.714 |
| ChaGo-K-1 | 0.981 | 0.937 | 0.872 | 0.974 | 0.75 | 0.256 | 0.247 | 0.22 | 0.203 | 0.877 | 1.04 | 0.836 | 0.921 | 0.801 | – | – | – | – |
| EBC-1 | – | – | – | – | – | – | – | – | – | – | – | – | – | – | 0.405 | 0.211 | 0.177 | 0.675 |
| EKVX | 0.366 | 0.322 | 0.362 | 0.39 | 0.373 | – | 0.311 | 0.265 | 0.227 | 0.605 | 0.714 | 0.874 | 0.707 | 0.658 | 0.906 | 0.377 | 0.238 | 1.1 |
| EMC-BAC-2 | 0.519 | 0.485 | 0.528 | 0.511 | 0.505 | 0.387 | 0.346 | 0.337 | 0.248 | 1.1 | 1.1 | 1.27 | 1.13 | 1.09 | 0.267 | 0.2 | 0.242 | 0.56 |
| EPLC-272H | 0.299 | 0.356 | 0.352 | 0.274 | 0.349 | – | 0.22 | 0.304 | 0.264 | 0.242 | 0.194 | 0.195 | 0.345 | 0.26 | 0.241 | 0.202 | 0.287 | 0.943 |
| H3255 | 0.307 | 0.361 | 0.309 | 0.307 | 0.336 | 0.304 | 0.301 | 0.292 | 0.336 | 0.843 | 1.02 | 1.03 | 0.839 | 0.873 | 0.439 | 0.26 | 0.298 | 0.803 |
| HARA | 0.229 | 0.251 | 0.311 | 0.296 | 0.283 | 0.26 | 0.184 | 0.225 | 0.232 | 0.469 | 0.243 | 0.301 | 0.357 | 0.279 | 0.152 | 0.148 | 0.154 | 0.623 |
| HCC-15 | 0.748 | 0.625 | 0.722 | 0.699 | 0.738 | 0.41 | 0.346 | 0.182 | 0.141 | 1.12 | 1.17 | 1.15 | 1.24 | 1.19 | 0.204 | 0.152 | 0.158 | 0.458 |
| HCC-44 | 0.98 | 1.01 | 0.975 | 1.01 | 1.01 | 0.841 | 0.631 | 0.484 | 0.532 | 0.995 | 1.04 | 1.08 | 1.06 | 1.01 | 0.305 | 0.168 | 0.249 | 0.677 |
| HCC-78 | 0.516 | 0.63 | 0.451 | 0.514 | 0.511 | 0.474 | 0.363 | 0.37 | 0.347 | 0.716 | 0.638 | 0.85 | 0.6 | 0.695 | 0.418 | 0.204 | 0.184 | 0.577 |
| HCC-366 | 0.417 | 0.343 | 0.355 | 0.367 | 0.351 | 0.228 | 0.18 | 0.0611 | 0.0667 | 0.268 | 0.252 | 0.321 | 0.34 | 0.216 | 0.152 | 0.0502 | 0.0674 | 0.443 |
